From patent US6551793B1, “Carotenoid-associated proteins useful for high carotenoid accumulation and production in plants and other organisms” (Yissum Research Development Company of the Hebrew …, priority 1996, dated 2003)

Tests used:
Type in all cases: cell-based, Cucumis sativus
CHRC mRNA [1] = experiment: In vitro flower bud culture, Northern blot of CHRC mRNA in corollas; conditions: 100 μM ABA, 2 hours
Procedure: (§1) Young flower buds were cultured in vitro in the presence (GA) or the absence (C) of 100 μM GA3 for up to 48 hours. Northern and Western blot analyses of corollas, cultured for the indicated periods of time, were performed. The Northern blots (25 μg total RNA/lane) were hybridized with ^32P-labeled DNA inserts from CHRC (CHRC), […] (Psy), and 18s rDNA (18S). Western blot analysis (bottom panel of A) was performed using antibodies against CHRC protein (25 μg total protein/lane). The results of the CHRC Northern blot analyses are also shown graphically relative to the mRNA level of the untreated corollas at zero time (0) (arbitrary value of 1).
(§2) Flower buds were cultured in the presence of 100 μm GA3 (GA), 100 μg/ml paclobutrazol following 2 hours of pretreatment with 100 μg/ml paclobutrazol (P), 100 μg/ml paclobutrazol +100 μm GA3 following 2 hours of pretreatment with 100 μg/ml paclobutrazol (P/GA), 100 μM ABA (ABA), or no phytohormones (C). Total RNA was extracted from corollas after 2 hours of treatment. Northern blot analyses were performed and probed as described in the legend to FIG. 7.
(§3) Total RNA and protein were extracted from cucumber corollas of flower buds cultured for 6 hours in the presence of 100 μM GA3 (GA), 50 μM CHX following 2 hours of pretreatment with 50 μM CHX (CHX/GA), or no phytohormones (C). Northern (CHRC, Psy, and 18S) and Western (bottom panel) blot analyses were performed as described above.
In FIG. 10, flower buds were cultured for 2 hours without (0) or with various concentrations of GA3. Total RNA was isolated from corollas, and a Northern blot was probed as above. The results of the CHRC Northern blot analyses are also shown graphically relative to the mRNA level of control corollas cultured without GA3 (arbitrary value of 1).
(§4) This example describes plant material and conditions for in vitro flower bud culture. C. sativus L. plants (cultivar Shimahon, obtained from Zeraim Gadera, Israel) were grown under standard greenhouse conditions. In vitro culture of flower buds was performed at 23° C., under constant light from cool white fluorescent lamps with a photosynthetic photon flux density of 80 μmol/m^2 g, as described previously. Briefly, buds at developmental stage 1 (˜8 mm in length, 120 hours before anthesis) were collected and rinsed several times with sterile water. Buds were then placed for 24 hours on a perforated Parafilm (American National Can, Greenwich, Conn.) covering a Petri dish filled with double-distilled sterile water, such that only the bases of the buds were in contact with the liquid. Following equilibration, buds were transferred to a fresh Petri dish (zero time for the experiments) and treated with GA3, ABA, paclobutrazol, or CHX, as specified in the figure legends.
This example describes conditions used for RNA isolation and Northern blot analysis. Total RNA from corollas of cucumber flower buds was isolated as described previously. RNA (15 and 25 μg) was fractionated through a 1.2% formaldehyde gel and transferred to a Hybond-N^− filter (Amersham Corp.). A random priming kit (Boehringer Mannheim) was used to radioactively labeled DNA probes. The blots were hybridized with ^32P-labeled cucumber CHRC cDNA (Vishnevetsky, et al., Plant Journal, 10: 1111-1118 (1996)) and reprobed with melon phytoene synthase (PSY) cDNA (MEL5), provided by D. Grierson of the Nottingham University, UK. The hybridization for analysis of CHRC expression was carried out in 0.263 M Na2HPO4, 7% SDS, […], 1% BSA for 16 hours at 60° C., and the washes were performed in 2×SSC/0.1% SDS at 50° C. followed by 2×SSC/0.1% SDS at 55° C., for 20 minutes each. Hybridization with the MEL5 probe was carried out at 55° C. using the same procedure. Following the hybridization, the blots were washed in 5×SSC/0.1% SDS at 45° C. for 20 minutes followed by 5×SSC/0.1% SDS at 50° C. and 2×SSC/0.1% SDS at 50° C. for 20 minutes each. […]

Psy mRNA = experiment: In vitro flower bud culture, Northern blot of Psy mRNA in corollas; conditions: 100 μM ABA or 100 μg/ml paclobutrazol, 2 hours of treatment
Procedure: as §1, §2, §3
as §4, with “Following equilibration, buds were transferred to a fresh Petri dish (zero time for the experiments) and treated with GA3, ABA, paclobutrazol, or CHX, as specified in the figure legends.” left out
This example describes conditions used for RNA isolation and Northern blot analysis. […] Autoradiograms were quantified by scanning suitably exposed films in a densitometer (Molecular Dynamics, Sunnyvale, Calif.). The amount of RNA loaded onto the gels was standardized by optical measurement, by quantitation of the ethidium bromide fluorescence of cytoplasmic rRNA. and by the level of hybridization with a DNA fragment coding for cytoplasmic 18S RNA.

CHRD = experiment: In vitro flower bud culture, Western blot of CHRD in corollas; conditions: flower buds cultured for 72 hours
Procedure: CHRD levels in corollas were analyzed by western blotting (10 μg of total protein per lane) using antibodies against CHRD and horseradish peroxidase anti-rabbit IgG in an enhanced chemiluminescence detection system. FIG. 14B is a Western blot analysis of corollas (50 μg of total protein per lane) cultured for the indicated periods with (+) or without (−) GA3. The blot was decorated with antibodies against CHRD and alkaline phosphatase anti-rabbit 1 gG.
In FIG. 15A, antibodies against CHRD or CHRC were used in a western blot analysis of CHRD and CHRC levels, respectively, in corollas cultured for 72 hours in the presence (E) or absence (C) of ethylene (50 μg of total protein per lane). In FIG. 15B, flowers were enclosed in aluminum foil in the greenhouse for 3 days and CHRD levels in etiolated (D) and control, nonetiolated (L) corollas were analyzed by western blotting (50 μg of total protein per lane).
as §4
CHRD protein was isolated from Cucumis sativus as a minor component, immunologically characterised and analyzed in terms of the regulation of its expression by developmental signals using methods and conditions described above for CHRC. […] Carotenoids are known to accumulate in dark.

CHRC mRNA [2] = experiment: In vitro flower bud culture, Northern blot of CHRC mRNA in corollas; conditions: 10 μM ABA

## CC1=CC(=O)CC(C)(C)[C@@]1(O)/C=C/C(C)=C\C(=O)O [ABA, abscisic acid]
CHRC mRNA [1]
  Down-regulation of CHRC mRNA level compared with control corollas: 2.5 times
Psy mRNA
  Effect on Psy mRNA levels: Neither ABA nor paclobutrazol markedly affected
CHRD
  CHRD level per unit protein, down-regulation compared with control untreated corollas: 2.5±0.3 times
CHRC mRNA [2]
  Down-regulation of CHRC expression: only slightly down-regulated
